US9975885B2, “Broad-spectrum non-covalent coronavirus protease inhibitors” (priority 2016, dated 2018)

Columns and labels:
HKU1-3CL^pro = HKU1-3CL^pro (Human coronavirus HKU1 (isolate N1) (HCoV-HKU1), UniProt P0C6X2); assay: biochemical
[1] = tested on: Ten CoV 3CL^pro's (FIPV-, PEDV-, NL63-, HKU1-, OC43-, SARS-, HKU4-, HKU5-, HKU9-, IBV-3CL^pro); type: biochemical, coronaviruses (α-, β-, γ-CoV)
HKU5-3CL^pro = HKU5-3CL^pro (Bat coronavirus HKU5 (BtCoV) (BtCoV/HKU5/2004), UniProt P0C6W4); type: biochemical
Sequence of HKU5-3CL^pro (P0C6W4 3339-3644 limits assumed): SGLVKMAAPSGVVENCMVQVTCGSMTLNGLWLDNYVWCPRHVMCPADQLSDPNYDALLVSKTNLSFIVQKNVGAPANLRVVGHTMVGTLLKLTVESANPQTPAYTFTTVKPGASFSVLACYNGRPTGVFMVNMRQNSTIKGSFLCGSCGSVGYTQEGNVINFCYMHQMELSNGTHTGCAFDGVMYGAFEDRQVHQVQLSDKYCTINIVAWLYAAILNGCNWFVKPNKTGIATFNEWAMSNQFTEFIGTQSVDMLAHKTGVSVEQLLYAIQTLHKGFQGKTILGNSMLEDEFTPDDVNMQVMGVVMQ

SARS-3CL^pro = SARS-3CL^pro (Severe acute respiratory syndrome coronavirus (SARS-CoV), UniProt P0C6X7); type: biochemical
HKU4-3CL^pro = HKU4-3CL^pro (Bat coronavirus HKU4 (BtCoV) (BtCoV/HKU4/2004), UniProt P0C6W3); type: biochemical
Sequence of HKU4-3CL^pro (P0C6W3 3292-3597 limits assumed): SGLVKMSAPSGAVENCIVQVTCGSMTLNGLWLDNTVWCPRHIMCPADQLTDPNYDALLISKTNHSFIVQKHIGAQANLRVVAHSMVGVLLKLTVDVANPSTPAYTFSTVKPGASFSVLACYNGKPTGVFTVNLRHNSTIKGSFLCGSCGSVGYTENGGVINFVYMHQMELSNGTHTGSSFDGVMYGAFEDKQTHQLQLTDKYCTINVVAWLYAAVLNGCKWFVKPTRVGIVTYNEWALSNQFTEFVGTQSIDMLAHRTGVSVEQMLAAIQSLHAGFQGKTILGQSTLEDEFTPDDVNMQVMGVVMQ

Sequence of HKU1-3CL^pro (P0C6X2 3335-3637 limits assumed): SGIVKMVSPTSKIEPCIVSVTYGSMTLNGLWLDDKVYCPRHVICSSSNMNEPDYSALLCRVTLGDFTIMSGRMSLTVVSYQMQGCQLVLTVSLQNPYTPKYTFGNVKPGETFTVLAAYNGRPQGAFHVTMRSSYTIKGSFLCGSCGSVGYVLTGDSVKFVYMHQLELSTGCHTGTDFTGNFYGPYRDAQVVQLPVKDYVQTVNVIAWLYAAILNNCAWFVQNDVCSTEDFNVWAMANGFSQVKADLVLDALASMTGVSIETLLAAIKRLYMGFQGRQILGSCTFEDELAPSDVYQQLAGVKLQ

SMILES | Gini Coefficient [1] | inhibition of any 3CL^pro [1] [%] | other results
COc1ccc(C(C(=O)NCc2ccccc2)N(C(=O)Cn2nnc3ccccc32)c2ccc(NC(=O)C(C)C)cc2)cc1 (stereo not shown) [Compound 13, N-(4-(2-(1H-benzo[d][1,2,3]triazol-1-yl)-N-(2-(benzylamino)-1-(4-methoxyphenyl)-2-oxoethyl)acetamido)phenyl)isobutyramide] | 0.43 |  | IC50 (HKU1-3CL^pro): 2.5 ± 0.4 µM; Score (performance metric score) [1]: 6.4; IC50 (HKU5-3CL^pro): 1.3 ± 0.2 µM
CC(C)(C)NC(=O)C(c1ccsc1)N(C(=O)Cc1c[nH]c2ccccc12)c1ccc(NC(=O)C2CC2)cc1 (stereo not shown) [Compound 26, N-(4-(N-(2-(tert-butylamino)-2-oxo-1-(thiophen-3-yl)ethyl)-2-(1H-indol-3-yl)acetamido)phenyl)cyclopropanecarboxamide] | 0.46 | ≤ 50 | 
CC(C)C(=O)Nc1ccc(N(C(=O)Cn2nnc3ccccc32)C(C(=O)NCc2ccccc2)c2cccc(Cl)c2)cc1 (stereo not shown) [Compound 11, N-(4-(2-(1H-benzo[d][1,2,3]triazol-1-yl)-N-(2-(benzylamino)-1-(3-chlorophenyl)-2-oxoethyl)acetamido)phenyl)isobutyramide] |  | ≤ 50 | 
CC(C)C(=O)Nc1ccc(N(C(=O)Cn2nnc3ccccc32)C(C(=O)NCc2ccccc2)c2ccncc2)cc1 (stereo not shown) [Compound 16, N-(4-(2-(1H-benzo[d][1,2,3]triazol-1-yl)-N-(2-(benzylamino)-2-oxo-1-(pyridin-4-yl)ethyl)acetamido)phenyl)isobutyramide] | 0.52 | ≤ 50 | 
CC(C)C(=O)Nc1ccc(N(C(=O)C2CCN(C(=O)OC(C)(C)C)CC2)C(C(=O)NCc2ccccc2)c2cccc(F)c2)cc1 (stereo not shown) [Compound 56, tert-butyl 4-((2-(benzylamino)-1-(3-fluorophenyl)-2-oxoethyl)(4-isobutyramidophenyl)carbamoyl) piperidine-1-carboxylate] | 0.34 |  | 
Cc1nccn1CCC(=O)N(c1ccc(NC(=O)C(C)C)cc1)C(C(=O)NCc1ccccc1)c1cccc(F)c1 (stereo not shown) [Compound 59, N-(2-(benzylamino)-1-(3-fluorophenyl)-2-oxoethyl)-N-(4-isobutyramidophenyl)-3-(2-methyl-1H-imidazol-1-yl)propanamide] | 0.44 |  | 
CC(C)(C)NC(=O)C(c1ccsc1)N(C(=O)Cc1coc2ccccc12)c1ccc(NC(=O)C2CC2)cc1 (stereo not shown) [Compound 25, N-(4-(2-(benzofuran-3-yl)-N-(2-(tert-butylamino)-2-oxo-1-(thiophen-3-yl)ethyl)acetamido)phenyl)cyclopropanecarboxamide] | 0.39 | ≤ 50 | 
CC(C)C(=O)Nc1ccc(N(C(=O)Cn2nnc3ccccc32)C(C(=O)NCc2ccccc2)c2ccc(Cl)cc2)cc1 (stereo not shown) [Compound 12, N-(4-(2-(1H-benzo[d][1,2,3]triazol-1-yl)-N-(2-(benzylamino)-1-(4-chlorophenyl)-2-oxoethyl)acetamido)phenyl)isobutyramide] | 0.37 |  | 
Cc1cccc2c(CC(=O)N(c3ccc(NC(=O)C(C)C)cc3)C(C(=O)NCc3ccccc3)c3cccc(F)c3)c[nH]c12 (stereo not shown) [Compound 57, N-(4-(N-(2-(benzylamino)-1-(3-fluorophenyl)-2-oxoethyl)-2-(7-methyl-1H-indol-3-yl)acetamido)phenyl)isobutyramide] | 0.38 | ≤ 50 | 
CC(C)C(=O)Nc1ccc(N(C(=O)Cn2nnc3ccccc32)C(C(=O)NCc2ccccc2)c2ccc(N(C)C)cc2)cc1 (stereo not shown) [Compound 52, N-(4-(2-(1H-benzo[d][1,2,3]triazol-1-yl)-N-(2-(benzylamino)-1-(4-(dimethylamino)phenyl)-2-oxoethyl)acetamido)phenyl)isobutyramide] | 0.42 | ≤ 50 | 
COc1cc(N(C(=O)c2c[nH]cn2)C(C(=O)NC(C)(C)C)c2cccnc2)cc(OC)c1OC (stereo not shown) [Compound 69, N-(2-(tert-butylamino)-2-oxo-1-(pyridin-3-yl)ethyl)-N-(3,4,5-trimethoxyphenyl)-1H-imidazole-4-carboxamide] | 0.45 |  | 
CC(C)C(=O)Nc1ccc(N(C(=O)Cc2coc3ccccc23)C(C(=O)NCc2ccccc2)c2cccc(F)c2)cc1 (stereo not shown) [Compound 20, N-(4-(2-(benzofuran-3-yl)-N-(2-(benzylamino)-1-(3-fluorophenyl)-2-oxoethyl)acetamido)phenyl)isobutyramide] | 0.39 | ≤ 50 | 
CC(C)C(=O)Nc1ccc(N(C(=O)CCc2nc3ccccc3[nH]2)C(C(=O)NCc2ccccc2)c2cccc(F)c2)cc1 (stereo not shown) [Compound 58, 3-(1H-benzo[d]imidazol-2-yl)-N-(2-(benzylamino)-1-(3-fluorophenyl)-2-oxoethyl)-N-(4-isobutyramidophenyl)propanamide] | 0.40 |  | 
Cc1cccc2c(CC(=O)N(c3ccc(NC(=O)C4CC4)cc3)C(C(=O)NC(C)(C)C)c3ccsc3)c[nH]c12 (stereo not shown) [Compound 61, N-(4-(N-(2-(tert-butylamino)-2-oxo-1-(thiophen-3-yl)ethyl)-2-(7-methyl-1H-indol-3-yl)acetamido)phenyl)cyclopropanecarboxamide] | 0.43 | ≤ 50 | 
CC(C)C(=O)Nc1ccc(N(C(=O)Cn2nnc3ccccc32)C(C(=O)NCc2ccccc2)c2ccc(OCCCN(C)C)cc2)cc1 (stereo not shown) [Compound 54, N-(4-(2-(1H-benzo[d][1,2,3]triazol-1-yl)-N-(2-(benzylamino)-1-(4-(3-(dimethylamino)propoxy)phenyl)-2-oxoethyl)acetamido)phenyl)isobutyramide] | 0.59 |  | IC50 (HKU1-3CL^pro): 20 ± 2.9 µM; IC50 (SARS-3CL^pro): 27.3 ± 4.6 µM; Score (performance metric score) [1]: 19.8
CC(C)(C)NC(=O)C(c1ccsc1)N(C(=O)C1CCN(C(=O)OC(C)(C)C)CC1)c1ccc(NC(=O)C2CC2)cc1 (stereo not shown) [Compound 60, tert-butyl 4-((2-(tert-butylamino)-2-oxo-1-(thiophen-3-yl)ethyl)(4-(cyclopropanecarboxamido)phenyl)carbamoyl)piperidine-1-carboxylate] | 0.60 | ≤ 50 | 
CC(C)(C)NC(=O)C(c1ccsc1)N(C(=O)CCc1nc2ccccc2[nH]1)c1ccc(NC(=O)C2CC2)cc1 (stereo not shown) [Compound 62, N-(4-(3-(1H-benzo[d]imidazol-2-yl)-N-(2-(tert-butylamino)-2-oxo-1-(thiophen-3-yl)ethyl)propanamido)phenyl)cyclopropanecarboxamide] | 0.46 | ≤ 50 | 
CC(C)C(=O)Nc1ccc(N(C(=O)Cn2nnc3ccccc32)C(C(=O)NCc2ccccc2)c2ccc(Cl)c(F)c2)cc1 (stereo not shown) [Compound 55, N-(4-(2-(1H-benzo[d][1,2,3]triazol-1-yl)-N-(2-(benzylamino)-1-(4-chloro-3-fluorophenyl)-2-oxoethyl)acetamido)phenyl)isobutyramide] | 0.50 |  | IC50 (SARS-3CL^pro): 0.8 ± 0.1 µM; Score (performance metric score) [1]: 9.8
CC(C)(C)NC(=O)C(c1cccnc1)N(C(=O)c1c[nH]cn1)c1cccc(C(C)(C)C)c1 (stereo not shown) [Compound 71] | 0.30 |  | 
CC(C)C(=O)Nc1ccc(N(C(=O)Cn2nnc3ccccc32)C(C(=O)NCc2ccccc2)c2cccnc2)cc1 (stereo not shown) [Compound 15, N-(4-(2-(1H-benzo[d][1,2,3]triazol-1-yl)-N-(2-(benzylamino)-2-oxo-1-(pyridin-3-yl)ethyl)acetamido)phenyl)isobutyramide] | 0.48 |  | IC50 (SARS-3CL^pro): 10.9 ± 1.9 µM; IC50 (HKU4-3CL^pro): 4 ± 0.4 µM; Score (performance metric score) [1]: 9.7; IC50 (HKU5-3CL^pro): 9.6 ± 1.2 µM
CC(C)(C)NC(=O)C(c1ccsc1)N(C(=O)Cc1csc2ccccc12)c1ccc(NC(=O)C2CC2)cc1 (stereo not shown) [Compound 24, N-(4-(2-(benzo[b]thiophen-3-yl)-N-(2-(tert-butylamino)-2-oxo-1-(thiophen-3-yl)ethyl)acetamido)phenyl)cyclopropanecarboxamide] | 0.40 | ≤ 50 | 
Cc1cc(N(C(=O)c2c[nH]cn2)C(C(=O)NC(C)(C)C)c2cccnc2)ccc1Cl (stereo not shown) [Compound 70, N-(2-(tert-butylamino)-2-oxo-1-(pyridin-3-yl)ethyl)-N-(4-chloro-3-methylphenyl)-1H-imidazole-4-carboxamide] | 0.33 |  | 
Cc1nccn1CCC(=O)N(c1ccc(NC(=O)C2CC2)cc1)C(C(=O)NC(C)(C)C)c1ccsc1 (stereo not shown) [Compound 63, N-(4-(N-(2-(tert-butylamino)-2-oxo-1-(thiophen-3-yl)ethyl)-3-(2-methyl-1H-imidazol-1-yl)propanamido)phenyl)cyclopropanecarboxamide] | 0.44 | ≤ 50 | 
